Laboratory results published in publication PMC8275010 (Nature medicine, 2021).
Where “and” joins values, the source holds several entries; their conditions need not be identical. Equal entries are not always repeated. Each block holds one molecule with its values, some of them ahead of it.

Legend:
plexiform neurofibroma = conditions: cited from earlier work
[1] = tested on: malignant peripheral nerve sheath tumor (MPNST) murine model; conditions: cabozantinib and mirdametinib; Nf1 and Trp53 compound mutations; cited from earlier work
AXL [2] = experiment: pAXL western blot after GAS6 stimulation; type: cell-based; conditions: GAS6 200-250 ng/mL; cabozantinib 1000-2500 nM; Schwann cells, fibroblasts, ECFCs
DDR1 = target: T1, DDR1 (Mus musculus, UniProt Q03146); experiment: MIB/MS kinome profiling of sciatic nerve tumor tissue after in vivo treatment; conditions: 7 days of sustained treatment vs vehicle
T1 sequence (Q03146 20-911): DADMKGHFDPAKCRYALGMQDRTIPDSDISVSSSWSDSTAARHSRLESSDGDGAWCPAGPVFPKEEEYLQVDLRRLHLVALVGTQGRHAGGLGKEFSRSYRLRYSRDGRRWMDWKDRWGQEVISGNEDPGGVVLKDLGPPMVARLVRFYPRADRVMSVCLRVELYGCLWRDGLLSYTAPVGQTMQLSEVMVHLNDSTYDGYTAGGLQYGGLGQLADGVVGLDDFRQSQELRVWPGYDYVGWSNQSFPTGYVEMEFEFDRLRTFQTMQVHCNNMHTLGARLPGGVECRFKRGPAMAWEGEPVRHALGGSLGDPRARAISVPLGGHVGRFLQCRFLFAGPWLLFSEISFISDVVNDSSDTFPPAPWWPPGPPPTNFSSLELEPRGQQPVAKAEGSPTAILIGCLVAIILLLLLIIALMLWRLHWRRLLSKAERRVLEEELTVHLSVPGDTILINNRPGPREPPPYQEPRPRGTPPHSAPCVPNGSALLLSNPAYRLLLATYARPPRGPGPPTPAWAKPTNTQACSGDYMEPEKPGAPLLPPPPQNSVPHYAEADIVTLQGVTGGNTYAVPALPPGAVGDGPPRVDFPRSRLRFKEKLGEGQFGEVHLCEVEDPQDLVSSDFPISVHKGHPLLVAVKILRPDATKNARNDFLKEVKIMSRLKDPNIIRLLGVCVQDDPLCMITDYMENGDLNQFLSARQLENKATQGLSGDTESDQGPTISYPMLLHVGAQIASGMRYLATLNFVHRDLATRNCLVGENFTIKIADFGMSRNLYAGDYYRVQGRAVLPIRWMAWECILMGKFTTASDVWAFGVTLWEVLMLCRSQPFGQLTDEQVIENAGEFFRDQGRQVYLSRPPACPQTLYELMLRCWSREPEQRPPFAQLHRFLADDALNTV

[3] = tested on: plexiform neurofibroma in Nf1^flox/flox;PostnCre mice; experiment: Plexiform neurofibroma tumor burden and histopathology in Nf1flox/flox; type: in vivo, mouse
[4] = type: in vivo, human; conditions: baseline to cycle 12
DDR2 = target: T2, DDR2 (Mus musculus, UniProt Q62371); experiment: MIB/MS kinome profiling of sciatic nerve tumor tissue after in vivo treatment; conditions: 7 days of sustained treatment vs vehicle
T2 sequence (Q62371 22-854): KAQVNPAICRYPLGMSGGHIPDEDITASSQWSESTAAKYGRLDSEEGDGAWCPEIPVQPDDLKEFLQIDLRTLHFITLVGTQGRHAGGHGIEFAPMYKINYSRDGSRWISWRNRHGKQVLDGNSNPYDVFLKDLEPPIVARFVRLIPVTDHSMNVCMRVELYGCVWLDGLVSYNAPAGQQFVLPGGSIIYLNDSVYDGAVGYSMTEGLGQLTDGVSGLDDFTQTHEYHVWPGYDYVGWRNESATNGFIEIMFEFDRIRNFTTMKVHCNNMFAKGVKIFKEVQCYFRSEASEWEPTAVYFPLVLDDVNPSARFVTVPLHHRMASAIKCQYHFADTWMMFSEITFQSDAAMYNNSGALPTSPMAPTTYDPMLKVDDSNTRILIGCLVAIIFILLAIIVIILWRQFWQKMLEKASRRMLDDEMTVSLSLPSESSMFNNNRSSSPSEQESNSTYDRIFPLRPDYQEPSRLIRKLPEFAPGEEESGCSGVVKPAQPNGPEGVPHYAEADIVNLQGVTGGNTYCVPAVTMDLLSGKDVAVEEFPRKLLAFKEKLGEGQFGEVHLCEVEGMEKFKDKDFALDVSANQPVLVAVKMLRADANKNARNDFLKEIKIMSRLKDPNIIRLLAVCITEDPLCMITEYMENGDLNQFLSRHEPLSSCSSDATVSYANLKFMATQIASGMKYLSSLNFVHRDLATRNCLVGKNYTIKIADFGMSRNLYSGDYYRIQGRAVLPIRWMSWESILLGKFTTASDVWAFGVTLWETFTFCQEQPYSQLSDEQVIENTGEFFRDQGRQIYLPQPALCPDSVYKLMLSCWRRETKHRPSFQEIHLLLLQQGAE

AXL [5] = target: T3, AXL (Mus musculus, UniProt Q00993); experiment: AXL in tumor bearing nerve tissue of treated mice; type: in vivo; conditions: 12 weeks of treatment vs vehicle; IHC and western blot
T3 sequence (Q00993 19-888): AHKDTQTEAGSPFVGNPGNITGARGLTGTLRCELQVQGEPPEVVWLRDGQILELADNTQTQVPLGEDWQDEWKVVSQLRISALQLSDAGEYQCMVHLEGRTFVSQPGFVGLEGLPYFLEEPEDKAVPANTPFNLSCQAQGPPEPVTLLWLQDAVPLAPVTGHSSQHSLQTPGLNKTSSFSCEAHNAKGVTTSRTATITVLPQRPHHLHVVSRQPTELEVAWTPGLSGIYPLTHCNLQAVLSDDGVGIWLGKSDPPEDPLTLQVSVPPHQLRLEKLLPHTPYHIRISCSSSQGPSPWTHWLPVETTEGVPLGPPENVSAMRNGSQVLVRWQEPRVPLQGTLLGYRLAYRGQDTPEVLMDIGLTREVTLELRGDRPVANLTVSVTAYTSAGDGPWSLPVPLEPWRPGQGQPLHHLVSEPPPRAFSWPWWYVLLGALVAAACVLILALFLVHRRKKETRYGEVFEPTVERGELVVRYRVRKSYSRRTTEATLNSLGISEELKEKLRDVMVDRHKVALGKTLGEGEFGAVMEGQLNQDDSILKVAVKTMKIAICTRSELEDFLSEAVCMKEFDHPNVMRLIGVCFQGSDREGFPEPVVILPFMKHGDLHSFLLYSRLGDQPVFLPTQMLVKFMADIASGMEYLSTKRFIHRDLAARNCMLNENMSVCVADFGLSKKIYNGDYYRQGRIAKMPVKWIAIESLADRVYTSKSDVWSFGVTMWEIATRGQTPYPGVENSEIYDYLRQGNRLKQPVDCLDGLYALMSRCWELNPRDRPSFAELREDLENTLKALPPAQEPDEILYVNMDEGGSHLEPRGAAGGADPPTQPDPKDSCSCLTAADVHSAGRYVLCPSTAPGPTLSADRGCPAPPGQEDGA

[6] = type: in vivo, mouse
AXL [7] = target: T3, AXL; experiment: MIB/MS kinome profiling of sciatic nerve tumor tissue after in vivo treatment; conditions: 7 days of sustained treatment vs vehicle
[8] = Phase 2 trial NCT02101736: clinical pharmacokinetics; type: in vivo; conditions: 40 mg dose, human plasma
soluble AXL (sAXL) = experiment: Mouse sAXL ELISA in plasma; type: in vivo; conditions: 12 weeks of treatment; vs WT mice or vehicle treated Nf1flox/flox;PostnCre mice
[9] = Phase 2 trial NCT02101736: safety and tolerability; set-up: species or system human; conditions: in vivo
[10] = tested on: NF1-related plexiform neurofibroma; type: in vivo, human
[11] = tested on: human immortalized NF1−/− Schwann cells (iPNF95.6); experiment: Caspase 3/7 Glo apoptosis assay; type: cell-based; conditions: 24 hours; cabozantinib 39 nM to 5 μM; Navitoclax 1 μM positive control
[12] = tested on: plexiform neurofibroma tumor tissues; experiment: TUNEL staining of nerve tissues of treated mice; type: in vivo, mouse

Molecule: pegylated interferon alfa-2b
clinical outcome in PN (plexiform neurofibroma): only prolonged PN time to progression

Molecule: Cn1cnc2c(F)c(Nc3ccc(Br)cc3Cl)c(C(=O)NOCCO)cc21 [selumetinib]
partial response rate (plexiform neurofibroma; children with progressive PN): 74%

Molecule: O=C(NOC[C@H](O)CO)c1ccc(F)c(F)c1Nc1ccc(I)cc1F [mirdametinib]
tumor growth in MPNST murine model [1]: reduce growth

MIB binding of DDR1 (DDR1): loss of MIB binding
MIB binding of DDR2 (DDR2): loss of MIB binding
AXL in treated tissues (AXL [5]): significant decline
Tmax ([6]; Nf1flox/flox;PostnCre, mouse, plasma, po, 15 mg/kg): 2 h
maximum concentration in plasma ([6]; single 15mg/kg oral gavage dose, Nf1flox/flox;PostnCre mice, plasma): 6800 ng/mL
maximal concentration in nerve tissue ([6]; single 15mg/kg oral gavage dose, nerve tissue): 636 ng/g
MIB binding of AXL (AXL [7]): loss of MIB binding
dose-normalized mean trough level ([8]; Cycle 1 Day 15): 16.5 ng/mL/mg
dose-normalized mean trough level ([8]; end of Cycle 1): 20.7 ng/mL/mg
Molecule: COc1cc2nccc(Oc3ccc(NC(=O)C4(C(=O)Nc5ccc(F)cc5)CC4)cc3)c2cc1OC [cabozantinib]
Gas6 mediated activation of AXL at the biochemical level (pAXL) (AXL [2]): inhibited
reduction of number of PN per mouse ([3]; 15mg/kg daily oral gavage, 12 weeks, relative to vehicle control): approximately 60%
reduction of mean volume of the proximal peripheral nerve roots ([3]; 15mg/kg daily oral gavage, 12 weeks, vs vehicle): 38%
mast cell infiltration ([3]; toluidine blue stained sections, 12 weeks treatment vs vehicle, P = 0.1013): not significantly changed
neoangiogenesis (blood vessels, CD31 immunohistochemistry) ([3]; treated tumors versus vehicle control, P < 0.0001): significant reduction
mean decrease in worst tumor pain intensity ([4]; responder group): 3 points
reduction in reported tumor pain (NRS-11), LSM estimate ([4]; responders, p<0.0001): 3.00
change in PedsQL NF1 general pain and hurt scale, LSM estimate ([4]; total sample, p=0.0036, improvement): −14.98
tumor growth in MPNST murine model [1]: reduce growth
sAXL in plasma (soluble AXL (sAXL)): significantly elevated
participants requiring dose reductions while on study [9]: Seven
participants with grade 3 adverse events [9]: 8
patients requiring dose reduction or discontinuation of therapy due to AEs [9]: Nine
disease progression while on study ([10]; 19 evaluable participants): No patient had disease progression
partial response rate (PR, ≥20% reduction in target lesion volume by MRI) ([10]; 19 evaluable participants, 40 mg escalated to 60 mg once daily): 42% and 42.1%
participants in whom maximal tumor response was not achieved until cycle 18 ([10]; in vivo): 4
participants in whom maximal tumor response was not achieved until cycle 24 ([10]; in vivo): 2
number of participants with PR ([10]; of the 19 participants evaluable for response): 8
apoptosis (caspase 3/7 activity) [11]: does not induce apoptosis
apoptosis in nerve tissues (TUNEL staining) [12]: negative for TUNEL staining

Molecule: CC1(C)CCC(c2ccc(Cl)cc2)=C(CN2CCN(c3ccc(C(=O)NS(=O)(=O)c4ccc(N[C@H](CCN5CCOCC5)CSc5ccccc5)c(S(=O)(=O)C(F)(F)F)c4)cc3)CC2)C1 [Navitoclax]
apoptosis (caspase 3/7 activity) [11]: robust increase
